Here are results for 25 molecules from patent US20070232601A1, “Vla-4 Inhibitor” (priority 2004, published 2007).

The term Ki denotes the dissociation constant of the complex between target and ligand, obtained from inhibition or displacement.

T1 sequence (P13612 34-1032): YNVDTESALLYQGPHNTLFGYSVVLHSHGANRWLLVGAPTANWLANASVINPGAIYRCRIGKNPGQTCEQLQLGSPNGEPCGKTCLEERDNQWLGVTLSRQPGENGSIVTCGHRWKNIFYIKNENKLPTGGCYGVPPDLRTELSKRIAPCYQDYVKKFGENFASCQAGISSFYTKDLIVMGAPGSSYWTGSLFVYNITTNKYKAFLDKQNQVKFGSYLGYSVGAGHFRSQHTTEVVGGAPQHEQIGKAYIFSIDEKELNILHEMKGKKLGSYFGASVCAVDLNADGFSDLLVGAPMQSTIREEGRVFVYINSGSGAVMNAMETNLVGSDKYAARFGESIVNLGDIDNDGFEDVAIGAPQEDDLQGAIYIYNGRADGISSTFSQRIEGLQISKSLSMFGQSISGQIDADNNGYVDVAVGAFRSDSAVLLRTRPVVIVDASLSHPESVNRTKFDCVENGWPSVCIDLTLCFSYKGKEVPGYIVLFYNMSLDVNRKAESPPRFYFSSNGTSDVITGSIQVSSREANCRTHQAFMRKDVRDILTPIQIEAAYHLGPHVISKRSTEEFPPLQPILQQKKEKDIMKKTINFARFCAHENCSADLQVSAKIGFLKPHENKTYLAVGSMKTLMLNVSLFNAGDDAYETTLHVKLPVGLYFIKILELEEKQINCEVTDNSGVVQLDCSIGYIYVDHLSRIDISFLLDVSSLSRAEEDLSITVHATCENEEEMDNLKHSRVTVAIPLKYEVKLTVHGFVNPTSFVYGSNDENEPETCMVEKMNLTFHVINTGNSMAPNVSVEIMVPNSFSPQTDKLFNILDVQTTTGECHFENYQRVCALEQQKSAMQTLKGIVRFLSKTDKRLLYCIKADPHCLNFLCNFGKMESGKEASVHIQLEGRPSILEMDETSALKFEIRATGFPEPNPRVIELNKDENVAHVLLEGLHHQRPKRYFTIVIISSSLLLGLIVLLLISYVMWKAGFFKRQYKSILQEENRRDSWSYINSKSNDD
T1 sequence (P05556 21-798): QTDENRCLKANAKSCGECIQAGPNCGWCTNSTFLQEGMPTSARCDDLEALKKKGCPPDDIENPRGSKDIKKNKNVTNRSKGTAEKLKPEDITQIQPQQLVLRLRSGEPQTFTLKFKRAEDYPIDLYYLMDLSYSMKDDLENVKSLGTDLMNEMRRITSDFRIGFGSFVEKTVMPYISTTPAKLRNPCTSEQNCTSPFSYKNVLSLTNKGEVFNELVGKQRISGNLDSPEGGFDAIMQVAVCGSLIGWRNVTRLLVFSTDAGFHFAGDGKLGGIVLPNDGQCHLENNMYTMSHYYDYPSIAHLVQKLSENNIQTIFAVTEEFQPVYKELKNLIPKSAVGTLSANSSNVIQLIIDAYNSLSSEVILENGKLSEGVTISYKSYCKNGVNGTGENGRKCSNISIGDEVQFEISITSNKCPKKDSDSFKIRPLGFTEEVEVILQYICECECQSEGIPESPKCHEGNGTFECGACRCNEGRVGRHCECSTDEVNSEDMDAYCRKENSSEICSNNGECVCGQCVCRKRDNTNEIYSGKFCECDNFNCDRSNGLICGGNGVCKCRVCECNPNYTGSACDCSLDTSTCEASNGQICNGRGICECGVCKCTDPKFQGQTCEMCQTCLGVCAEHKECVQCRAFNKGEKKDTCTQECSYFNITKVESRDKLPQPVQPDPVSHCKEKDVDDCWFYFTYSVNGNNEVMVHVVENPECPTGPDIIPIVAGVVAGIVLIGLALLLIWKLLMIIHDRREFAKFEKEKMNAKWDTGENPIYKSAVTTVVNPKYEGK

The experiment has as its target T1, hα4 and β1 integrins (VLA-4) (Homo sapiens, UniProt P05556+P13612).
T1 construct: expressed in transfected cells; host or cells: CHO cells
Kind of experiment: In vitro evaluation: inhibition of binding of CHO cells expressing hα4 and β1 integrins to Eu3+-hVCAM-1 D1D7-IgG. The note with it: ligand Eu3+-hVCAM-1 D1D7-IgG 2 nM, Ki calculated from IC50. On the procedure: CHO cells which were forced to be expressed by transduction of hα4 and β1 integrins are seeded (3×10^4 cells/100 μl/well) on a Costar 3599 plate, and cultured for 2 days. A medium is washed with a buffer A* two times, and Eu^3+-hVCAM-1 D1D7-IgG which was diluted with an assay buffer A** to 2 nM is added at 50 μl/well. A test substance which was diluted with 2% DMSO-assay buffer (in the presence or the absence of 6% human serum albumin) is added at 50 μl/well (A solution which was separately diluted is added to a well in which Scatchard analysis is performed), this is stirred with a plate mixer for 5 minutes, and allowed to stand at room temperature for 1 hour. Thereafter, this is washed with a buffer A four times, a potentiating reagent (manufactured by DELFIA) is added at 100 μl/well, this is shaken for 5 minutes using a plate mixer, and a fluorescence intensity is measured with a time-resolved fluorometer (DELFIA Wallac). IC50 (concentration at which binding of CHO cell and Eu^3+-hVCAM-1 D1D7-IgG is inhibited by 50%) of a test substance is obtained from an integration rate obtained from a calculation equation: [(FT−FNS)−(FI−FNS)]/[(FT−FNS)]×100, wherein FT indicates a fluorescence intensity of a well not containing a test substance, FNS indicates a fluorescence intensity of a well not containing a test substance and hVCAM-1 D1D7-IgG, and FI indicates a fluorescence intensity containing a test substance. A Kd value showing strength of binding and Bmax (maximum binding amount) were presumed in a range of 0.06 to 20 nM according to the Scachard analysis method. [formula]
A Ki value was calculated according to the above equation ([L] is ligand concentration)
[* buffer A: 25 mM HEPES (pH 7.5), 150 mM NaCl, 1 mM Ca^2+, 1 mM Mg^2+, 4 mM Mn^2+; ** assay buffer: 25 mM HEPES (pH 7.5), 150 mM NaCl, 1 mM Ca^2+, 1 mM Mg^2+, 4 mM Mn^2+, 0.1% BSA, 20 μM DTPA, with/without 6% ALBUMIN, HUMAN SERUM (C/NA-1653, SIGMA)]
With `CO[C@H]1C[C@@H](c2ncc(CCC(=O)O)s2)N(C(=O)Cc2ccc3nc(-c4cn(C)c5ccccc45)oc3c2F)C1` [Example 11, 3-[2-[1-[7-Fluoro-2-(1-methylindol-3-yl)-1,3-benzoxazol-6-ylacetyl]-(4S)-methoxy-(2S)-pyrrolidinyl]-5-thiazolyl]propionic acid], the Ki was 0.5 nM.

For `O=C(O)CCc1cnc([C@@H]2C[C@H](F)CN2C(=O)Cc2cc(Cl)c(NC(=O)c3csc4ccccc34)cc2F)s1` [Example 21, 3-[2-[1-[[4-[(3-Benzo[b]thienylcarbonyl)amino]-5-chloro-2-fluorophenyl]acetyl]-(4S)-fluoro-(2S)-pyrrolidinyl]-5-thiazolyl]propionic acid], the inhibition constant (Ki) is 0.61 nM.

On to `CO[C@H]1C[C@@H](c2cc(CCC(=O)O)on2)N(C(=O)Cc2cc(Cl)c(NC(=O)c3cn(C)c4ccccc34)cc2Cl)C1` [Example 30, 3-[3-[1-[2,5-Dichloro-4-(1-methyl-3-indolylcarbonylamino)phenylacetyl]-(4S)-methoxy-(2S)-pyrrolidinyl]-5-isoxazole]propionic acid], for which the inhibition constant Ki is 5.8 nM.

For the molecule “3-[2-[1-[4-(3-Benzo[b]thiophenylcarbonyl)amino-5-chloro-2-fluorophenyl]acetyl]-(3S)-ethoxy-(2S)-pyrrolidinyl]-5-oxazolyl]propionic acid methyl ester [Example 99]”, the inhibition constant (Ki) is 5.3 nM.

Consider `CO[C@H]1C[C@@H](c2ncc(CCC(=O)O)o2)N(C(=O)Cc2cc(Cl)c(NC(=O)c3csc4ccccc34)cc2Cl)C1` [Example 14, 3-[2-[1-[[4-[(3-Benzo[b]thienylcarbonyl)amino]-2,5-dichlorophenyl]acetyl]-(4S)-methoxy-(2S)-pyrrolidinyl]-5-oxazolyl]propionic acid], for which the inhibition constant (Ki) is 4 nM.

For `CCO[C@H]1CCN(C(=O)Cc2ccc3nc(Nc4ccccc4C)oc3c2)[C@@H]1c1ncc(CCC(=O)O)o1` [Example 104, 3-[2-[1-[[2-(2-Methylphenyl)amino-6-benzoxazolyl]acetyl]-(3S)-ethoxy-(2S)-pyrrolidinyl]-5-oxazolyl]propionic acid], the inhibitory constant (Ki) was 4.5 nM.

Take `CCO[C@H]1CCN(C(=O)Cc2cc(Cl)c(NC(=O)c3coc4ccccc34)cc2F)[C@@H]1c1ncc(CCC(=O)O)s1` [Example 95]: the inhibition constant Ki is 4.2 nM.

Consider `CO[C@H]1C[C@@H](c2ncc(CCC(=O)O)s2)N(C(=O)Cc2cc(Cl)c(NC(=O)c3coc4ccccc34)cc2Cl)C1` [Example 5, 3-[2-[1-[4-[(1-Benzofuran-3-ylcarbonyl)amino]-2,5-dichlorophenylacetyl]-(4S)-methoxy-(2S)-pyrrolidinyl]-5-thiazolyl]propionic acid], for which the Ki was 0.6 nM.

Regarding `CON(C)[C@H]1C[C@@H](c2ncc(CCC(=O)O)s2)N(C(=O)Cc2cc(Cl)c(NC(=O)c3coc4ccccc34)cc2Cl)C1` [Example 132, 3-[2-[1-[-(3-Benzo[b]furanylcarbonylamino)-2,5-dichlorophenylacetyl]-(4S)—N,O-dimethylhydroxylamino-(2S)-pyrrolidinyl]-5-thiazolyl]propionic acid], the Ki was 13 nM.

Turning to `CCO[C@H]1CCN(C(=O)Cc2cc(Cl)c(NC(=O)c3cn(C)c4ccccc34)cc2Cl)[C@@H]1c1ncc(CCC(=O)O)s1` [Example 92, 3-[2-[1-[[2,5-Dichloro-4-(1-methyl-3-indolylcarbonylamino)phenyl]acetyl]-(3S)-ethoxy-(2S)-pyrrolidinyl]-5-thiazolyl]propionic acid], the inhibitory constant (Ki) is 10 nM.

In the case of `CCOC[C@@H]1CC[C@@H](c2ncc(CCC(=O)O)s2)N1C(=O)Cc1cc(Cl)c(NC(=O)c2coc3ccccc23)cc1F` [Example 50, 3-[2-[1-[4-[(1-Benzofuran-3-ylcarbonyl)amino]-5-chloro-2-fluorophenylacetyl]-(5S)-ethoxymethyl-2(2S)-pyrrolidinyl)-5-thiazolyl]propionic acid], the inhibitory constant (Ki) was 51 nM.

On to `CCO[C@H]1CCN(C(=O)Cc2ccc3nc(Nc4cc(F)ccc4OC)oc3c2F)[C@@H]1c1ncc(CCC(=O)O)o1` [Example 105, 3-[2-[1-[[7-Fluoro-2-(5-fluoro-2-methoxyphenyl)amino-6-benzoxazolyl]acetyl]-(3S)-ethoxy-(2S)-pyrrolidinyl]-5-oxazolyl]propionic acid], for which the inhibition constant Ki was 11 nM.

Take `COC[C@@H]1CC[C@@H](c2ncc(CCC(=O)O)s2)N1C(=O)Cc1cc(Cl)c(NC(=O)c2cn(C)c3ccccc23)cc1Cl` [Example 54, 3-[2-[1-[2,5-Dichloro-4-(1-methyl-3-indolylcarbonylamino)phenylacetyl]-(5S)-methoxymethyl-(2S)-pyrrolidinyl]-5-thiazolyl]propionic acid]: the inhibitory constant (Ki) is 24 nM.

For the molecule `O=C(O)CCc1cnc([C@@H]2CCCN2C(=O)Cc2cc(Cl)c(NC(=O)c3csc4ccccc34)cc2Cl)s1` [Example 28, 3-[2-[1-[[4-[(3-Benzo[b]thienylcarbonyl)amino]-2,5-dichlorophenyl]acetyl]-(2S)-pyrrolidinyl]-5-thiazolyl]propionic acid], the Ki is 0.86 nM.

In the case of `COc1ccccc1Nc1nc2ccc(CC(=O)N3C[C@@H](F)C[C@H]3c3ncc(CCC(=O)O)s3)c(F)c2o1` [Example 23, 3-[2-[1-[[7-Fluoro-2-(2-methoxyphenylamino)-1,3-benzoxazol-6-yl]acetyl]-(4S)-fluoro-(2S)-pyrrolidinyl]-5-thiazolyl]propionic acid], the Ki was 0.35 nM.

Take `O=C(O)CCc1cnc([C@@H]2CCCN2C(=O)Cc2cc(Cl)c(NC(=O)c3csc4ccccc34)cc2F)s1` [Example 29, 3-[2-[1-[4-[(3-Benzo[b]thienylcarbonyl)amino]-5-chloro-2-fluorophenylacetyl]-(2S)-pyrrolidinyl]-5-thiazolyl]propionic acid]: the inhibitory constant (Ki) was 0.26 nM.

Take `CCO[C@H]1CCN(C(=O)Cc2ccc3nc(Nc4ccccc4OC)oc3c2)[C@@H]1c1ncc(CCC(=O)O)o1` [Example 106, 3-[2-[1-[[2-(2-Methoxyphenyl)amino-6-benzoxazolyl]acetyl]-(3S)-ethoxy-(2S)-pyrrolidinyl]-5-oxazolyl]propionic acid]: the inhibition constant (Ki) is 21 nM.

For `CCO[C@H]1CCN(C(=O)Cc2cc(Cl)c(NC(=O)c3csc4ccccc34)cc2Cl)[C@@H]1c1ncc(CCC(=O)O)o1` [Example 100], the Ki was 7.7 nM.

`O=C(O)CCn1nnc([C@@H]2CCCN2C(=O)Cc2cc(Cl)c(NC(=O)c3csc4ccccc34)cc2F)n1` [Example 126, 3-[5-[1-[[4-[(3-Benzo[b]thiophenylcarbonyl)amino]-5-chloro-2-fluorophenyl]acetyl]-(2S)-pyrrolidinyl]-2H-tetrazol-2-yl]propionic acid]: the Ki was 19 nM.

`COC[C@@H]1CC[C@@H](c2ncc(CCC(=O)O)s2)N1C(=O)Cc1cc(Cl)c(NC(=O)c2csc3ccccc23)cc1F` [Example 55, 3-[2-[1-[4-[(3-Benzo[b]thienylcarbonyl)amino]-5-chloro-2-fluorophenylacetyl]-(5S)-methoxymethyl-(2S)-pyrrolidinyl]-5-thiazolyl]propionic acid]: the Ki is 17 nM.

For the molecule `CC(C)O[C@H]1C[C@@H](c2ncc(CCC(=O)O)s2)N(C(=O)Cc2cc(Cl)c(NC(=O)c3coc4ccccc34)cc2F)C1` [Example 38], the inhibitory constant (Ki) was 3.3 nM.

For `CCOC[C@@H]1CC[C@@H](c2ncc(CCC(=O)O)s2)N1C(=O)Cc1cc(Cl)c(NC(=O)c2cn(C)c3ccccc23)cc1Cl` [Example 48, 3-[2-[1-[2,5-Dichloro-4-(1-methyl-3-indolylcarbonylamino)phenylacetyl]-(5S)-ethoxymethyl-(2S)-pyrrolidinyl]-5-thiazolyl]propionic acid], the inhibition constant (Ki) was 36 nM.

Turning to `CO[C@H]1C[C@@H](c2ncc(CCC(=O)O)o2)N(C(=O)Cc2cc(Cl)c(NC(=O)c3cn(C)c4ccccc34)cc2F)C1` [Example 13, 3-[2-[1-[5-Chloro-2-fluoro-4-(1-methyl-3-indolylcarbonyl)aminophenylacetyl]-(4S)-methoxy-(2S)-pyrrolidinyl]-5-oxazolyl]propionic acid], the Ki was 17 nM.

Consider `CON(C)[C@H]1C[C@@H](c2ncc(CCC(=O)O)s2)N(C(=O)Cc2cc(Cl)c(NC(=O)c3cn(C)c4ccccc34)cc2F)C1` [Example 127, 3-[2-[1-[5-Chloro-2-fluoro-4-(1-methyl-3-indolylcarbonylamino)phenylacetyl]-(4S)—N,O-dimethylhydroxylamino-(2S)-pyrrolidinyl]-5-thiazolyl]propionic acid], for which the Ki is 4.5 nM.

For `CO[C@H]1C[C@@H](c2ncc(CCC(=O)O)s2)N(C(=O)Cc2cc(Cl)c(NC(=O)c3nn(C)c4ccccc34)cc2F)C1` [Example 7, 3-[2-[1-[5-Chloro-2-fluoro-4-(1-methyl-3-indazolylcarbonyl)aminophenylacetyl]-(4S)-methoxy-(2S)-pyrrolidinyl]-5-thiazolyl]propionic acid], the inhibitory constant (Ki) was 0.97 nM.
